Source: patent US20250114367A1, “METHOD OF TREATING HAIR LOSS DISORDERS” (Sun Pharmaceutical Industries, Inc., priority 2023, published 2025)

What was measured:
Format in all cases: in vivo, human
[1] = system: adult subjects with moderate to severe AA; experiment: Phase III trial: Patient Global Impression of Improvement (PGI-I); conditions: non-missing data
Protocol: The PGI-I was assessed by the subject. Compared to the subject's AA prior to treatment at baseline, the subject's current state of AA was assessed according to his/her perceived change. The subject selected 1 of 7 numeric choices representing “Very Much Worse” to “Very Much Improved.” If a subject was unable to attend an in-person clinic visit due to COVID-19, the PGI-I was to be performed via a virtual visit with video capability.
(§1) A Phase III trial was conducted to assess the efficacy and safety of CTP-543 in adult subjects with moderate to severe AA. Approximately 440 adult male and female subjects 18 to 65 years of age, inclusive, with moderate to severe AA participated in the study. Subjects with definitive diagnosis of AA, and at least 50% hair loss, as defined by a SALT score ≥50, who met all of the inclusion criteria and none of the exclusion criteria participated in the study.
(§2) The Screening Period lasted up to 28 days prior to initiation of study drug. […] Randomization was stratified by scalp hair loss into 1 of the following 2 categories: 1) partial scalp hair loss (SALT ≥50 and <95), 2) complete or near complete scalp hair loss (SALT ≥95).
(§3) Additional secondary efficacy endpoints included the following: • Relative change in SALT scores from baseline at Weeks 4, 8, 12, 16, 20, and 24. • Percentage of responders (defined as “much improved” or “very much improved”) using the Clinical Global Impression of Improvement (CGI-I) at Weeks 12, 16, 20, and 24. • Percentage of responders (defined as “much improved” or “very much improved”) using the Patient Global Impression of Improvement (PGI-I) at Weeks 12, 16, 20, and 24. • Change from baseline in the Clinical Global Impression of Severity (CGI-S) at Weeks 12, 16, 20, and 24. • Change from baseline in the Patient Global Impression of Severity (PGI-S) at Weeks 12, 16, 20, and 24. • Change from baseline on the Brigham Eyebrow Tool for Alopecia (BETA) score at Weeks 12 and 24. • Change from baseline on the Brigham Eyelash Tool for Alopecia (BELA) score at Weeks 12 and 24. • Percentage of subjects achieving at least a 75% relative reduction in SALT score from baseline at Weeks 12 and 24. • Percentage of subjects achieving at least a 90% relative reduction in SALT score from baseline at Weeks 12 and 24. • Percentage of responders (defined as “satisfied” or “very satisfied”) on the SPRO scale at Weeks 12, 16, and 20. • Change from baseline in the SPRO scale at Weeks 12, 16, 20, and 24. • Percentage of subjects achieving a ≥2-point change from baseline in the SPRO scale at Weeks 12, 16, 20, and 24. • Change from baseline on the individual items of the Hair Quality Patient Reported Outcome (QPRO) scale at Weeks 12, 16, 20, and 24. • Change from baseline in the depression scale of the Hospital Anxiety and Depression Scale (HADS) at Week 24. • Change from baseline in the anxiety scale of the HADS at Week 24. • Percentage of subjects achieving an absolute SALT score of ≤20 at Week 4. • Percentage of subjects achieving an absolute SALT score of ≤10 at Week 24
Detailed data are described below.

[2] = system: adult subjects with moderate to severe AA; experiment: Phase III trial: Clinical Global Impression of Improvement (CGI-I); conditions: non-missing data
Protocol: The CGI-I was assessed by the investigator. Compared to the subject's alopecia areata prior to treatment at baseline, the subject's current state of alopecia areata was assessed according to the investigator's perceived change. The investigator selected 1 of 7 numeric choices representing “Very Much Worse” to “Very Much Improved.” To reduce variability, 1 rater was to perform the CGI-I assessment for the subject for the duration of the study.
as §1, §2, §3
Subjects with responses of “very much improved” or “much improved” were considered CGI-I responders. […] Detailed data are described below. At each visit, the percentage of CGI-I responders (non-missing data) was as follows: […]

[3] = system: subjects with AA; experiment: SALT change at week 8, 8 mg BID versus 16 mg once daily
Protocol: A decrease in SALT score indicates increased hair growth. Decreases in the LS mean SALT scores were initially observed at Week 4. […] At week 8, the LS mean change from baseline SALT score was higher in subjects treated with deuruxolitinib 8 mg BID (8.6%) than in subjects treated with 16 mg once daily (QD) (2.7%).

## [2H]C1([2H])C([C@@H](CC#N)n2cc(-c3ncnc4[nH]ccc34)cn2)C([2H])([2H])C([2H])([2H])C1([2H])[2H] [CTP-543, (R)-3-(4-(7H-pyrrolo[2,3-d]pyrimidin-4-yl)-1H-pyrazol-1-yl)-3-(cyclopentyl-2,2,3,3,4,4,5,5-d8) propanenitrile]
[1]; Week 24, 8 mg BID
  percentage of PGI-I responders (very much improved or much improved): 50.9%
[1]; Week 24, 12 mg BID
  percentage of PGI-I responders (very much improved or much improved): 68.3%
[1]; week 12, 8 mg BID
  percentage of PGI-I responders (very much improved or much improved): 43.3%
[1]; week 12, 12 mg BID
  percentage of PGI-I responders (very much improved or much improved): 49.2%
[1]; week 16, 8 mg BID
  percentage of PGI-I responders (very much improved or much improved): 46.2%
[1]; week 16, 12 mg BID
  percentage of PGI-I responders (very much improved or much improved): 59.8%
[1]; week 20, 8 mg BID
  percentage of PGI-I responders (very much improved or much improved): 48.7%
[1]; week 20, 12 mg BID
  percentage of PGI-I responders (very much improved or much improved): 64.4%
[2]; Week 24, 8 mg BID
  percentage of CGI-I responders (very much improved or much improved): 54.1%
[2]; Week 24, 12 mg BID
  percentage of CGI-I responders (very much improved or much improved): 61.7%
[2]; week 12, 8 mg BID
  percentage of CGI-I responders (very much improved or much improved): 38.0%
[2]; week 12, 12 mg BID
  percentage of CGI-I responders (very much improved or much improved): 44.3%
[2]; week 16, 8 mg BID
  percentage of CGI-I responders (very much improved or much improved): 45.0%
[2]; week 16, 12 mg BID
  percentage of CGI-I responders (very much improved or much improved): 52.0%
[2]; week 20, 8 mg BID
  percentage of CGI-I responders (very much improved or much improved): 50.0%
[2]; week 20, 12 mg BID
  percentage of CGI-I responders (very much improved or much improved): 9.0%
[3]; 8 mg BID
  LS mean change from baseline SALT score: 8.6%
[3]; 16 mg once daily (QD)
  LS mean change from baseline SALT score: 2.7%
